Like-named read-outs stand apart in the source and are kept apart here.
Key:
[1] = test system: human pancreatic adenocarcinoma cell line Capan-1; assay: Apoptosis by DAPI labeling and fluorescence microscope; format: cell-based; conditions: positive control, 10 μg/mL, 24 h
Description: The studies of possible induction of apoptosis by the PCI were done with the human pancreatic adenocarcinoma cell line Capan-1. The detailed procedure that was employed is as follows:
1. 5×10^5 cells were seed in the chambers/slides and were cultured for 3 o 4 days (until the moment in which, through microscope observation, they presented 75% of confluence). The cells were cultured in DMEM+10% FBS.
2. […] A positive control was added, cysplatinum, at a concentration of 10 μg/mL (a drug which induces apoptosis in various tumor cell lines, Borner, M. M., et al. (1995) Cancer Res., 55: 2122-2128. The incubation period was 24 h.
3. The medium was removed after incubation and the chamber was washed with 2 mL of PBS.
5. Cells were fixed with 2 mL of 2% formaldehyde for 20 min at 4° C.
6. The plates were washed again with 2 mL of PBS for 5 min at room temperature.
7. Cell membranes were permeabilized with 0.25% Triton ×100 in PBS for 5 min at 4° C.
8. Washed with PBS for 5 min at room temperature.
9. The cells were labeled with DAPI at a final concentration of 2 μg/mL for 50 min in darkness at room temperature.
10. The preparation was fitted with the fluoroprep medium and it was examined through the fluorescence microscope.
% apoptosis=(number of apoptotic cells/total number of cells)×100

[2] = test system: human pancreatic adenocarcinoma cell line Capan-1; format: cell-based; conditions: SFM, 72 h
Description: Other kinds of tests were also carried out, the cells growing in serum-free medium as well; these were studies at short periods of time, 72 h, and of competitiveness with a growth factor plus wtPCI, PCIdelYVG or tail. […] The protocol employed was as follows:
1. In a culture plate of 96 wells, in 42 of which 5,000 cells per well were seed. The cells were placed in full medium (DMEM+10%FBS).
2. After 72 h, once the adhesion of the cells to the surface of the well had taken place, as well as their division, the medium was removed from the wells and to eliminate the remainder of the serum, 200 μL of PBS were added to each well.
3. The PBS was removed and 200 μL of DMEM-FBS were added.
4. After 24 h, the medium was removed and the following treatments were applied:
(§1) In 6 wells (control): 200 μL of serum-free medium (SFM) were added.
200 μL of SFM plus the indicated concentration of one of the growth factors and wtPCI were added in 6 wells at a final concentration of 50 μg/mL.
In 6 wells, 200 μL of SFM plus the indicated concentration of one of the growth factors and PCIdelYVG were added at a final concentration of 46 μg/mL. […]
4. Cells were kept in an incubator at 37° C., 87% of relative humidity and 10% of CO2.
5. After 72 h, the cellular growth per well was evaluated using the method detailed in the protocol of Section 4.B.2.a.

[3] = test system: human pancreatic adenocarcinoma cell line Panc-1; format: cell-based; conditions: SFM, 72 h
Description: The tests that were carried out growing in free bovine fetal serum medium were very similar to those used in the line Capan-1 described in Section 4.B.2.b. The protocol employed is as follows:
1. A culture plate with 96 wells, in 42 of which 5,000 cells were seed per well. The cells were placed in full medium (RPMI+10%FBS).
2. After 48 h, after the cells had adhered to the surface of the well and they had divided as well, the medium was drained from the wells and to eliminate the rest of the serum, 200 μL of PBS were added to each well.
3. The PBS was removed and 200 μL of RPMI-FBS were added.
4. After 48 h, the medium was removed and the following treatments were applied:
as §1
In 6 wells, 200 μL of SFM plus the indicated concentration of one of the growth factors and wtPCI at a final concentration of 50 μg/mL were added.
In 6 wells, 200 μL of SFM plus the indicated concentration of one of the growth factors and PCIdelYVG at a final concentration of 46 μg/mL were added.
In 6 wells, 200 μL of SFM plus the indicated concentration of one of the growth factors and tail at a final concentration of 6.4 μg/mL were added.
In 6 wells, 200 μL of SFM plus the indicated concentration of one of the growth factors and wtPCI at a final concentration of 50 μg/mL combined with tail at a final concentration of 6.4 μg/mL were added.
In 6 wells, 200 μL of SFM plus the indicated concentration of one of the growth factors and PCIdelYVG at a final concentration of 46 μg/mL combined with tail at a final concentration of 6.4 μg/mL were added.
The cells were kept in an incubator at 37° C., 87% of relative humidity and 10% of CO2.
5. After 72 h, the cell growth per well was evaluated using the method detailed in the protocol of Section 4.B.2.a.

[4] = molecular target: T1, carboxypeptidase (Bos taurus, UniProt P00730); assay: Carboxypeptidase inhibiting effect; format: biochemical
T1 sequence (P00730 111-419): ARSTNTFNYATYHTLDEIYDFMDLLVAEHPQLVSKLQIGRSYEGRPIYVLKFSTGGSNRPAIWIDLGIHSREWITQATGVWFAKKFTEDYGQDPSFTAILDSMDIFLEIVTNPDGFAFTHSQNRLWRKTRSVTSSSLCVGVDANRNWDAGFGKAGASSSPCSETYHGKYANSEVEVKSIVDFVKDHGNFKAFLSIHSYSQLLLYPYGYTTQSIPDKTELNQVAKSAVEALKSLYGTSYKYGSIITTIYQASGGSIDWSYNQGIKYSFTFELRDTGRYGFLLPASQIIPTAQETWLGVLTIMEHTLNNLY
Description: All the buffers employed in HPLC and FPLC are prepared employing Mono-Q water and are filtered through membranes of 0.22 μm and degassed immediately before use. The HPLC, as well as the FPLC, are done at room temperature. The process of purification is done by determining the global concentration of proteins after each step using the Bradford method; the concentration of recombinant PCI is evaluated by measuring its inhibitory effect of CPA using appropriate blanks; or, in the case of PCI mutants with little or zero carboxypeptidase activity, by ELISA with rabbit polyclonal antibodies against PCI.
To determine whether the inhibiting effect on cellular growth of the PCI is related to its carboxypeptidase inhibiting effect or with its specific knotin topology, tests of cellular inhibition with a mutant form were carried out. Concretely, the deletion of the three C-terminal amino acids was designed resulting in the form PCIdelY37V38G39 (or PCIdelYVG). This form was designed and constructed because it keeps the structure and the topology of wild PCI. This is inferred from the fact that it presents a similar chromatographic behaviour to that of the wild form and that it can be detected by antibodies antiwtPCI. Also by means of computer simulation (by molecular dynamics using the GROMOS programme) it presented a similar behaviour to the wild form after 300 ps of dynamics.

[5] = test system: human pancreatic adenocarcinoma cell line Capan-1; conditions: serum-free medium, 16 days
Description: Two kinds of tests were carried out; the first one is the treatment of cells of the human pancreatic adenocarcinoma cell line Capan-1 with wtPCI and tail added to the culture medium in absence of serum.
In a culture plate with 96 wells, 5,000 cells were seed per well, in 24 of them. The cells were placed in full medium (DMEM+10%FBS).
In 6 wells (control): 200 μL of serum-free medium (DMEM-FBS) and free of tail were added.
200 μL of serum-free medium with 50 μg/mL of native PCI were added.
In 6 wells, 200 μL of serum-free medium with 0.128 μg of tail/mL were added.
In 6 wells, serum-free medium with 6.4 μg of tail/mL was added.
The medium contained in the wells was changed every 3-4 days. The old medium was sucked out using a Pasteur pipette.
After 16 days, the cell growth per well was evaluated according to the method detailed in the protocol of Section 4.B.2.a.

[6] = test system: human pancreatic adenocarcinoma cell line Panc-1; format: cell-based; conditions: SFM, 72 h; remark: listed apart in the source
[7] = test system: human pancreatic adenocarcinoma cell line Panc-1; assay: Proliferation test with tetrazolium salts, Panc-1 in medium with serum, 10 days; format: cell-based
Description: It was performed the same kind of test which had been carried out for the Capan-1 cell line but with Panc-1, another human pancreatic adenocarcinoma cell line. We are referring to a human pancreatic adenocarcinoma ATCC nr. CRL 1469, established by Lieber, M. et al. (1975) In. J. Cancer, 15: 741-747. Of ductal origin, it is not highly differentiated.
As for the Capan-1 cell line, two types of experiments were carried out with and without bovine fetal serum. The protocol followed for the test, growing in RPMI plus bovine fetal serum, was the same as that used with Capan-1 cell line but with small variations, given the difference in the duplication times between the two lines. The tests were carried out with the native PCI (wtPCI) and with the mutant PCI (PCIdelYVG). The protocol is detailed as follows:
1. In a culture plate with 96 wells, 2,000 cells were seed in 30 wells for the tests with wtPCI and in 36 for the tests with PCIdelYVG. From these 30 or 36:
In 6 wells (control), 200 μL of full medium (RPMI+10%FBS) without wtPCI or PCIdelYVG/mL were added. […]
2. The cells were kept in an incubator at 37° C., 87% of relative humidity and 10% of CO2. The old medium was sucked out with a Pasteur pipette. Medium free of wtPCI or PCIdelYVG was added to the control wells and to the others a medium was added with identical concentration of wtPCI or PCIdelYVG.
3. After 10 days, the cell growth was evaluated per well, according to the method detailed in the protocol of Section 4.B.2.a.

[8] = test system: Panc-1 cells; assay: Internalization studies by means of fluorescence (RITC labeling), Panc-1; format: cell-based, human; conditions: accumulation around the nucleus
Description: In fluorescence studies, the possible internalization of PCI, labeled with a fluorophore, by Capan-1 and Panc-1 cell lines was followed by microscope observation.
In the incorporation studies of the RITC-PCI, the protocol of Billings, P. C. et al. (1989) Carcinogenesis, 10: 687-691, slightly modified, was followed:
1. 200,000 cells of the cell line to be studied were placed in culture chambers/slides and were left there to grow for 48 h.
2. The medium of the cells growing in exponential phase was changed and 20 or 50 μg/mL of RITC-PCI were added to the new medium, keeping it in the medium for a variable incubation time ranging from 1 minute to 4 h inside the incubator.
3. The medium was retired after the incubation and the monolayer of the cells was washed with PBS for 10 min in darkness.
4. The cells were fixed with 350 μl of a solution 50% methanol—50% acetone for 8 min at 4° C. in a dark and humid chamber.
5. The cells were washed again with PBS for 10 min in darkness.
6. The preparations were dried with absorbing paper being very careful not to touch the cells. The preparations were fitted with PBS: Glycerol (1:1) and were sealed with nail polish.
The labeling protocol was exactly the same as that of the wild PCI, as described in Section 4.F.1.b. The studies of incorporation of the labeled mutant were carried out as described in Section 4.F.1.c.

[9] = Insulina 5 mg/mL + 6.4 mg/mL tail
[10] = EGF 10 ng/mL + 46 mg/mL PCIdelYVG
[11] = Insulin 5 mg/mL + 46 mg/mL PCIdelYVG

N.N.[Cl][Pt][Cl] [cysplatinum, reference compound]
% Apoptosis [1]: 5.19%

EGF: epidermic growth factor [reference compound]
Growth (Percentage in relation to the average of the controls) ([2]; EGF 10 ng/mL alone): 106.66%
growth in relation to the control situation ([2]; EGF alone, at the tested concentration (10 ng/mL)): no differences in relation to the control situation
Growth (Percentage in relation to the average of the controls) ([3]; EGF 10 ng/mL alone): 63.52%
inhibition in relation to the control situation ([3]; EGF alone, in the tested concentration (10 ng/mL)): 36%

H-GPYVG-OH [tail, H-Gly-Pro-Tyr-Val-Gly-OH]
Growth (Percentage in relation to the average of the controls) ([2]; EGF 10 ng/mL + 6.4 mg/mL tail): 28.33%
Growth (Percentage in relation to the average of the controls) [2, 9]: 52.58%
carboxypeptidase inhibitory activity [4]: lacks carboxypeptidase inhibitory activity
Growth (Percentage in relation to the average of the controls) ([5]; 0.128 mg/mL tail): 81.95%
Growth (Percentage in relation to the average of the controls) ([5]; 6.4 mg/mL tail): 77%
Growth (Percentage in relation to the average of the controls) ([6]; EGF 10 ng/mL + 6.4 mg/mL tail): 16.23%
Growth (Percentage in relation to the average of the controls) [6, 9]: 24.84%

IGF-1: growth factor 1 of the insulin type [reference compound]
stimulation in relation to the control ([2]; IGF-1 alone (20 ng/mL)): 58%
stimulation in relation to control ([3]; IGF-1 alone (20 ng/mL)): 26%

Insulin: growth factor used to stimulate proliferation [reference compound]
Growth (Percentage in relation to the average of the controls) ([2]; Insulin 5 mg/mL alone): 292.86%
stimulation in relation to the control ([2]; insulin alone (5 μg/mL)): 193%
Growth (Percentage in relation to the average of the controls) ([3]; Insulin 5 mg/mL alone): 193.47%
stimulation in relation to control ([3]; insulin alone (5 μg/mL)): 93%

PCIdelYVG: recombinant PCI mutant with deletion of the three C-terminal amino acids Tyr-Val-Gly (EQHADPICNKPCKTHDDCSGAWFCQACWNSARTCGP; Potato; (1)..(39) Isoform IIa of the potato carboxypeptidase inhibitor)
Growth (Percentage in relation to the average of the controls) [2, 10]: 40.83%
Growth (Percentage in relation to the average of the controls) [2, 11]: 44.60%
inhibition of the growth ([7]; 46 μg/mL concentration): 15%
Growth (Percentage in relation to the average of the controls) ([7]; 0.092 mg/mL PCIdelYVG, RPMI+10%FBS): 112.92%
Growth (Percentage in relation to the average of the controls) ([7]; 0.92 mg/mL PCIdelYVG): 105.43%
Growth (Percentage in relation to the average of the controls) ([7]; 23 mg/mL PCIdelYVG): 94.85%
Growth (Percentage in relation to the average of the controls) ([7]; 46 mg/mL PCIdelYVG): 85.51%
stimulus of the growth ([7]; concentration 0.092 μg/mL): 13%
incorporation of RITC-labeled mutant by the cells [8]: is incorporated by the cells
Ki [4]: micromolar level
decrease of the inhibitory capacity ([4]; compared with wild PCI): 3 orders of magnitude
Growth (Percentage in relation to the average of the controls) [6, 10]: 5.53%
Growth (Percentage in relation to the average of the controls) [6, 11]: 21.41%
